# Measured values published in patent publication US4988687A, “Cephalosporin derivatives, and antibacterial agents” (priority 1986, dated 1991).
# Legend:
# A. calcoaceticus No. 4 = test: agar plate dilution method, MIC against A. calcoaceticus No. 4; type: cell-based; settings: Acinetobacter calcoaceticus; A. calcoaceticus No. 4; 10^6 CFU/ml, 37° C., 16 hours; read-out: Minimum Inhibitory Concentration (MIC)
# Procedure: (§1) The in vitro antibacterial activities of the compounds of the present invention against various microorganisms, were measured by the following agar plate dilution method. One platinum loopfull of each test microorganism incubated overnight in Mueller Hinton broth, was inoculated to Mueller Hinton agar (inoculum size: 10^6 CFU/ml) Such culture media containing various antibiotics in various concentrations were prepared After incubation at 37° C. for 16 hours, the minimum inhibitory concentrations (MIC: μg/ml) were measured. As comparative compounds, cefotaxime, oeftazidime and the compounds disclosed in Example 2 of Japanese Unexamined Patent Publication No. 215690/1985 e.g. sodium 7-[2-(2-aminothiazol-4-yl)-2-ethoxyiminoacetamido]-3-(1-carboxylatemethylpyridinio-4-yl)thiomethyl-3-cephem-4-carboxylate (hereinafter referred to simply as "Reference Example A") were employed.
# E. coli GN5482 = test: agar plate dilution method, MIC against E. coli GN5482; type: cell-based; settings: Escherichia coli; E. coli GN5482 (lactamase-producing strain); 10^6 CFU/ml, 37° C., 16 hours; read-out: Minimum Inhibitory Concentration (MIC)
# Procedure: as §1
# S. marcescens No. 16-2 = test: agar plate dilution method, MIC against S. marcescens No. 16-2; type: cell-based; settings: Serratia marcescens, NO.162, 16 h, read-out: Minimum Inhibitory Concentration (MIC)
# Procedure: as §1
# M. luteus ATCC9341 = test: agar plate dilution method, MIC against M. luteus ATCC9341; type: cell-based; settings: Micrococcus luteus, ATCC9341, 16 h, read-out: Minimum Inhibitory Concentration (MIC)
# Procedure: as §1
# Ps. cepacia 23 = test: agar plate dilution method, MIC against Ps. cepacia 23; type: cell-based, Pseudomonas cepacia; settings: Burkholderia cepacia, 23, 16 h, read-out: Minimum Inhibitory Concentration (MIC)
# Procedure: as §1
# P. vulgaris No. 33 = test: agar plate dilution method, MIC against P. vulgaris No. 33; type: cell-based; settings: Proteus vulgaris; P. vulgaris No. 33 (lactamase-producing strain); 10^6 CFU/ml, 37° C., 16 hours; read-out: Minimum Inhibitory Concentration (MIC)
# Procedure: as §1
# E. coli NIHJ JC2 = test: agar plate dilution method, MIC against E. coli NIHJ JC2; type: cell-based; settings: Escherichia coli, NIHJJC2, 16 h, read-out: Minimum Inhibitory Concentration (MIC)
# Procedure: as §1
# S. marcescens IAM 1184 = test: agar plate dilution method, MIC against S. marcescens IAM 1184; type: cell-based; settings: Serratia marcescens, IAM1184, 16 h, read-out: Minimum Inhibitory Concentration (MIC)
# Procedure: as §1
# E. cloacae Nek 39 = test: agar plate dilution method, MIC against E. cloacae Nek 39; type: cell-based; settings: Enterobacter cloacae, NEK39; E. cloacae Nek 39 (lactamase-producing strain); 10^6 CFU/ml, 37° C., 16 hours; read-out: Minimum Inhibitory Concentration (MIC)
# Procedure: as §1
# Ps. maltophilia GN 12873 = test: agar plate dilution method, MIC against Ps. maltophilia GN 12873; type: cell-based, Pseudomonas maltophilia; settings: Stenotrophomonas maltophilia, GN12873; Ps. maltophilia GN 12873 (lactamase-producing strain); 10^6 CFU/ml, 37° C., 16 hours; read-out: Minimum Inhibitory Concentration (MIC)
# Procedure: as §1
# Ps. aeruginosa IFO3445 = test: agar plate dilution method, MIC against Ps. aeruginosa IFO3445; type: cell-based; settings: Pseudomonas aeruginosa; Ps. aeruginosa IFO3445; 10^6 CFU/ml, 37° C., 16 hours; read-out: Minimum Inhibitory Concentration (MIC)
# Procedure: as §1
# K. pneumoniae PCI-602 = test: agar plate dilution method, MIC against K. pneumoniae PCI-602; type: cell-based; settings: Klebsiella pneumoniae, PCI602; K. pneumoniae PCI-602; 10^6 CFU/ml, 37° C., 16 hours; read-out: Minimum Inhibitory Concentration (MIC)
# Procedure: as §1
# C. freundii GN346 = test: agar plate dilution method, MIC against C. freundii GN346; type: cell-based; settings: Citrobacter freundii; C. freundii GN346 (lactamase-producing strain); 10^6 CFU/ml, 37° C., 16 hours; read-out: Minimum Inhibitory Concentration (MIC)
# Procedure: as §1
# E. coli CSH2 (RK1) = test: agar plate dilution method, MIC against E. coli CSH2 (RK1); type: cell-based; settings: Escherichia coli, 16 h, read-out: Minimum Inhibitory Concentration (MIC)
# Procedure: as §1
# Ps. aeruginosa AK 109 = test: agar plate dilution method, MIC against Ps. aeruginosa AK 109; type: cell-based; settings: Pseudomonas aeruginosa, AK109; Ps. aeruginosa AK 109; 10^6 CFU/ml, 37° C., 16 hours; read-out: Minimum Inhibitory Concentration (MIC)
# Procedure: as §1
# K. oxytoca GN10650 = test: agar plate dilution method, MIC against K. oxytoca GN10650; type: cell-based; settings: Klebsiella oxytoca; K. oxytoca GN10650 (lactamase-producing strain); 10^6 CFU/ml, 37° C., 16 hours; read-out: Minimum Inhibitory Concentration (MIC)
# Procedure: as §1
# E. coli CSH(RE45) = test: agar plate dilution method, MIC against E. coli CSH(RE45); type: cell-based; settings: Escherichia coli, 16 h, read-out: Minimum Inhibitory Concentration (MIC)
# Procedure: as §1
# P. vulgaris HX-19 = test: agar plate dilution method, MIC against P. vulgaris HX-19; type: cell-based; settings: Proteus vulgaris, HX19, 16 h, read-out: Minimum Inhibitory Concentration (MIC)
# Procedure: as §1
# K. pneumoniae No. 42 = test: agar plate dilution method, MIC against K. pneumoniae No. 42; type: cell-based; settings: Klebsiella pneumoniae; K. pneumoniae No. 42 (lactamase-producing strain); 10^6 CFU/ml, 37° C., 16 hours; read-out: Minimum Inhibitory Concentration (MIC)
# Procedure: as §1
# C. freundii GN346/16 = test: agar plate dilution method, MIC against C. freundii GN346/16; type: cell-based; settings: Citrobacter freundii; C. freundii GN346/16; 10^6 CFU/ml, 37° C., 16 hours; read-out: Minimum Inhibitory Concentration (MIC)
# Procedure: as §1
# E. cloacae 963 = test: agar plate dilution method, MIC against E. cloacae 963; type: cell-based; settings: Enterobacter cloacae, 963, 16 h, read-out: Minimum Inhibitory Concentration (MIC)
# Procedure: as §1
# S. aureus 209P NIHJ-JC1 = test: agar plate dilution method, MIC against S. aureus 209P NIHJ-JC1; type: cell-based; settings: Staphylococcus aureus; S. aureus 209P NIHJ-JC1; 10^6 CFU/ml, Mueller Hinton agar, 37° C., 16 hours; read-out: Minimum Inhibitory Concentration (MIC)
# Procedure: as §1
# S. aureus JS1 = test: agar plate dilution method, MIC against S. aureus JS1; type: cell-based; settings: Staphylococcus aureus; S. aureus JS1 (methicilline resistant; lactamase-producing strain); 10^6 CFU/ml, 37° C., 16 hours; read-out: Minimum Inhibitory Concentration (MIC)
# Procedure: as §1
# S. epidermidis IAM12012 = test: agar plate dilution method, MIC against S. epidermidis IAM12012; type: cell-based; settings: Staphylococcus epidermidis; S. epidermidis IAM12012; 10^6 CFU/ml, 37° C., 16 hours; read-out: Minimum Inhibitory Concentration (MIC)
# Procedure: as §1
# S. aureus BB5703 = test: agar plate dilution method, MIC against S. aureus BB5703; type: cell-based; settings: Staphylococcus aureus, BB5703, 16 h, read-out: Minimum Inhibitory Concentration (MIC)
# Procedure: as §1
# M. morganii GN5407 = test: agar plate dilution method, MIC against M. morganii GN5407; type: cell-based; settings: Morganella morganii; M. morganii GN5407 (lactamase-producing strain); 10^6 CFU/ml, 37° C., 16 hours; read-out: Minimum Inhibitory Concentration (MIC)
# Procedure: as §1
# Ps. aeruginosa AKR17 = test: agar plate dilution method, MIC against Ps. aeruginosa AKR17; type: cell-based; settings: Pseudomonas aeruginosa; Ps. aeruginosa AKR17; 10^6 CFU/ml, 37° C., 16 hours; read-out: Minimum Inhibitory Concentration (MIC)
# Procedure: as §1
structure (smiles),measurement,setting,value
"Nc1nc(/C(=N/OCc2ccccc2)C(=O)NC2C(=O)N3C(C(=O)[O-])=C(CSc4cc[n+](CC(=O)O)cc4)CSC23)cs1 (stereo not drawn) [Example 2, monosodium 7-[2-(2-aminithiazol-4-yl)-2-benzyloxyiminoacetamide]-3-(1-caboxylatemethylpyridinio-4-yl)thiomethyl-3-cephem-4-carboxylate (syn-isomer)]",MIC,A. calcoaceticus No. 4,25 µg/mL
same,MIC,E. coli GN5482,0.78 µg/mL
same,MIC,S. marcescens No. 16-2,12.5 µg/mL
same,MIC,M. luteus ATCC9341,0.025 µg/mL
same,MIC,Ps. cepacia 23,12.5 µg/mL
same,MIC,P. vulgaris No. 33,1.56 µg/mL
same,MIC,E. coli NIHJ JC2,1.56 µg/mL
same,MIC,S. marcescens IAM 1184,1.56 µg/mL
same,MIC,E. cloacae Nek 39,6.25 µg/mL
same,MIC,Ps. maltophilia GN 12873,> 100 µg/mL
same,MIC,Ps. aeruginosa IFO3445,25 µg/mL
same,MIC,K. pneumoniae PCI-602,0.0125 µg/mL
same,MIC,C. freundii GN346,25 µg/mL
same,MIC,E. coli CSH2 (RK1),0.2 µg/mL
same,MIC,Ps. aeruginosa AK 109,25 µg/mL
same,MIC,K. oxytoca GN10650,12.5 µg/mL
same,MIC,E. coli CSH(RE45),0.2 µg/mL
same,MIC,P. vulgaris HX-19,< 0.006 µg/mL
same,MIC,K. pneumoniae No. 42,1.56 µg/mL
same,MIC,C. freundii GN346/16,0.78 µg/mL
same,MIC,E. cloacae 963,1.56 µg/mL
same,MIC,S. aureus 209P NIHJ-JC1,0.39 µg/mL
same,MIC,S. aureus JS1,50 µg/mL
same,MIC,S. epidermidis IAM12012,0.2 µg/mL
same,MIC,S. aureus BB5703,1.56 µg/mL
same,MIC,M. morganii GN5407,1.56 µg/mL
same,MIC,Ps. aeruginosa AKR17,> 100 µg/mL
